This is an account of results in ChEMBL document CHEMBL1201862, “PubChem BioAssay data set” (2004).

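Step 1: Grow cells in 96-well plates. Step 2: Expose to compound for 48 hours at 5 concentrations. Step 3: Interpolate endpoints linearly; if unreached, use highest concentration. At the GI50, growth is halved.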 The source made the active and inactive calls. Rule as the data show it: active = GI50 up to about 1.1 µM and inactive = higher.

Some test systems named below: A549; CCRF-CEM; COLO 205; DU-145; EKVX; HCC 2998; HT-29; Hs-578T; K562; LOX IMVI; NCI-H522; NCI/ADR-RES; OVCAR-3; OVCAR-8; SF-539; SW-620; U-251; UACC-257; UACC-62; UO-31.
Test in all cases: NCI anticancer screen, dose series, 48 h

`CCc1nc2c(c(N(C)C)c1C(=O)OC)CCc1ccccc1-2`: the GI50 was 31 µM (inactive) in the experiment with A549; 2.45 µM (inactive) in the experiment on CCRF-CEM; 18.7 µM (inactive) in the experiment on COLO 205; 1.5 µM (inactive) in the experiment with DU-145; 25.9 µM (inactive) in the experiment on EKVX; 24.6 µM (inactive) in the experiment on HCC 2998. Moreover, the GI50 in the experiment with HT-29 is 27.7 µM (inactive); in the experiment with Hs-578T, 51.1 µM (inactive); in the experiment on K562, 20.2 µM (inactive); in the experiment on LOX IMVI it was 27.2 µM (inactive); with NCI-H522 it was 17.9 µM (inactive); in the experiment with NCI/ADR-RES, 29.6 µM (inactive). For the same molecule, the GI50 with OVCAR-3 is 13.4 µM (inactive); in the experiment on OVCAR-8, 34.1 µM (inactive); with SF-539, 39.4 µM (inactive); in the experiment on SW-620, 32.8 µM (inactive); in the experiment on U-251 it was 30.9 µM (inactive); with UACC-257, 26.1 µM (inactive). Further, the figures for the GI50 in the experiment on UACC-62 and in the experiment on UO-31 were 16.9 µM (inactive) and 37.4 µM (inactive), respectively.
For `Cc1nc2ccccc2n1CCc1nc2ccccc2[nH]1`, the GI50 in the experiment with A549, in the experiment with CCRF-CEM, in the experiment with COLO 205, in the experiment on DU-145, in the experiment with EKVX and in the experiment with HCC 2998 was > 100 µM (inactive) each time. In addition, the GI50 in the experiment with HT-29, with Hs-578T, in the experiment on K562, with LOX IMVI, with NCI-H522 and in the experiment on NCI/ADR-RES was > 100 µM (inactive) in each case. Also, the GI50 in the experiment on OVCAR-3, in the experiment on OVCAR-8, in the experiment with SF-539, in the experiment on SW-620, in the experiment on U-251 and in the experiment on UACC-257 was > 100 µM (inactive) throughout. Moreover, the GI50 with UACC-62 and in the experiment on UO-31 was > 100 µM (inactive) in each case.
`CC1c2cc(c3c(c2O)CN([C@@H](C)C2CCCCC2)CO3)C(C)c2cc(c3c(c2O)CN([C@@H](C)C2CCCCC2)CO3)C(C)c2cc(c3c(c2O)CN([C@@H](C)C2CCCCC2)CO3)C(C)c2cc1c1c(c2O)CN([C@@H](C)C2CCCCC2)CO1` (stereo not given in full): the GI50 with A549 was 1.84 µM (inactive); in the experiment on CCRF-CEM, 0.34 µM (active); in the experiment on COLO 205 it was 1.36 µM (inactive); with DU-145, 1.35 µM (inactive); in the experiment with EKVX it was 1.06 µM (active); in the experiment on HCC 2998, 1.45 µM (inactive). The GI50 in the experiment on HT-29 is 0.277 µM (active); in the experiment with Hs-578T it was 1.35 µM (inactive); with K562, 0.369 µM (active); in the experiment with LOX IMVI, 0.681 µM (active); with NCI-H522 it was 0.607 µM (active); with NCI/ADR-RES, 1.27 µM (inactive). Moreover, the GI50 is 1.71 µM (inactive) with OVCAR-3; 1.15 µM (inactive) with OVCAR-8; 1.77 µM (inactive) with SF-539; 0.986 µM (active) in the experiment with SW-620; 0.964 µM (active) in the experiment on U-251; 1.66 µM (inactive) with UACC-257. For the same molecule, the figures for the GI50 in the experiment on UACC-62 and with UO-31 were 1.8 µM (inactive) and 1.81 µM (inactive), respectively.
Consider `CCOC(CN(C)C(=O)Nc1ccc(Cl)c(Cl)c1)OCC`, for which the GI50 in the experiment with A549, in the experiment on CCRF-CEM, in the experiment with COLO 205, with DU-145, in the experiment with EKVX and in the experiment on HCC 2998 was > 10 µM (inactive) throughout. Further, the GI50 in the experiment on HT-29, in the experiment with Hs-578T, in the experiment on K562, with LOX IMVI, in the experiment on NCI-H522 and in the experiment with NCI/ADR-RES was > 10 µM (inactive) throughout. Also, the GI50 with OVCAR-3, in the experiment with OVCAR-8, in the experiment with SF-539, with SW-620, in the experiment on U-251 and in the experiment with UACC-257 was > 10 µM (inactive) throughout. The GI50 with UACC-62 and in the experiment with UO-31 was > 10 µM (inactive) throughout.
Turning to `O=[N+]([O-])c1nccn1CCCNc1ccnc2cc(Cl)ccc12`, the GI50 in the experiment with A549 was 5.43 µM (inactive); with CCRF-CEM, 5.38 µM (inactive); in the experiment on COLO 205, 3.05 µM (inactive); in the experiment with DU-145 it was > 7.74 µM (inactive); in the experiment with EKVX, 1.93 µM (inactive); in the experiment with HCC 2998 it was 18.2 µM (inactive). Also, the GI50 in the experiment with HT-29 was 3.94 µM (inactive); in the experiment on Hs-578T, > 100 µM (inactive); in the experiment with K562, 4.24 µM (inactive); in the experiment with LOX IMVI, 4.63 µM (inactive); in the experiment with NCI-H522 it was 2.25 µM (inactive); in the experiment on NCI/ADR-RES, > 96.6 µM (inactive). Also, the GI50 with OVCAR-3 is 1.77 µM (inactive); with OVCAR-8, 7.4 µM (inactive); in the experiment on SF-539, 5.48 µM (inactive); with SW-620, 4.23 µM (inactive); with U-251 it was 6.82 µM (inactive); in the experiment with UACC-257, 3.44 µM (inactive). The results for the GI50 in the experiment with UACC-62 and in the experiment with UO-31 were 6.21 µM (inactive) and 5.4 µM (inactive), respectively.
In the case of `CC(=O)C(C(C)=O)[C@H]1OC(C)(C)O[C@H]1[C@H]1COC(C)(C)O1`, the GI50 in the experiment with A549 is 42.6 µM (inactive); in the experiment on CCRF-CEM it was 36.9 µM (inactive); in the experiment on COLO 205 it was 17.7 µM (inactive); in the experiment with DU-145, 42.1 µM (inactive); in the experiment on EKVX it was 50.6 µM (inactive); in the experiment on HCC 2998, 26.5 µM (inactive). Also, the GI50 with HT-29 is 33.6 µM (inactive); with Hs-578T, 44.8 µM (inactive); in the experiment with K562 it was 34.4 µM (inactive); with LOX IMVI, 32.7 µM (inactive); in the experiment with NCI-H522 it was 33.8 µM (inactive); in the experiment on NCI/ADR-RES, 28.6 µM (inactive). In addition, the GI50 is 28.6 µM (inactive) with OVCAR-3; 34.7 µM (inactive) in the experiment with OVCAR-8; 18.7 µM (inactive) with SF-539; 56.8 µM (inactive) with SW-620; 24.9 µM (inactive) in the experiment with U-251; 49.4 µM (inactive) with UACC-257. Moreover, the values for the GI50 with UACC-62 and in the experiment with UO-31 were 43.2 µM (inactive) and 49.8 µM (inactive), respectively.
Regarding `N=C(N)N/N=C\c1c(-c2cccc([N+](=O)[O-])c2)nc2sc(Cl)cn12`, the GI50 in the experiment with A549 was 2.84 µM (inactive); with CCRF-CEM, 1.26 µM (inactive); in the experiment with COLO 205 it was 1.93 µM (inactive); with DU-145, 2.48 µM (inactive); in the experiment on EKVX it was 3.15 µM (inactive); in the experiment with HCC 2998 it was 2.31 µM (inactive). The GI50 with HT-29 is 1.73 µM (inactive); in the experiment on Hs-578T, 43.4 µM (inactive); with K562, 0.575 µM (active); in the experiment on LOX IMVI, 3.7 µM (inactive); in the experiment with NCI-H522 it was 1.98 µM (inactive); in the experiment with NCI/ADR-RES it was > 100 µM (inactive). In addition, the GI50 in the experiment with OVCAR-3 was 3.24 µM (inactive); with OVCAR-8, 2.75 µM (inactive); in the experiment on SF-539 it was 2.6 µM (inactive); with SW-620, 3.18 µM (inactive); with U-251, 3.17 µM (inactive); with UACC-257 it was 2.29 µM (inactive). Further, the GI50 in the experiment on UACC-62 was 27.5 µM (inactive); in the experiment with UO-31, 1.71 µM (inactive).
On to `Nc1ncnc2c1nc(Cl)n2[C@@H]1O[C@@H]2COP(=O)(O)O[C@H]2[C@H]1O` [TOCLADESINE], for which the GI50 in the experiment on A549 was 22.8 µM (inactive); in the experiment with CCRF-CEM, 3.48 µM (inactive); in the experiment on COLO 205 it was 10 µM (inactive); in the experiment with DU-145, 12.5 µM (inactive); in the experiment with EKVX, 35.6 µM (inactive); in the experiment on HCC 2998 it was 37.8 µM (inactive). Further, the GI50 in the experiment with HT-29 is 8.39 µM (inactive); with Hs-578T, 28.7 µM (inactive); with K562, 2.82 µM (inactive); with LOX IMVI, 2.7 µM (inactive); in the experiment on NCI-H522, 27.1 µM (inactive); with NCI/ADR-RES, 6.67 µM (inactive). In addition, the GI50 in the experiment on OVCAR-3 was 44.9 µM (inactive); with OVCAR-8 it was 5.42 µM (inactive); in the experiment on SF-539, 49 µM (inactive); in the experiment with SW-620, 12.1 µM (inactive); with U-251, 67.8 µM (inactive); with UACC-257 it was 42.6 µM (inactive). The GI50 with UACC-62 is 15.7 µM (inactive); in the experiment on UO-31 it was 16.4 µM (inactive).
`C=C1C(=O)OC2C1C(OC(=O)/C(C)=C/C)CC(O)(CCl)C1C(O)C=C(C)C21O` (stereo not given): the GI50 was 28.7 µM (inactive) with A549; 2.84 µM (inactive) in the experiment on CCRF-CEM; 4.58 µM (inactive) in the experiment on COLO 205; 16.5 µM (inactive) with DU-145; 12 µM (inactive) with EKVX; 12.6 µM (inactive) with HCC 2998. For the same molecule, the GI50 was 15.7 µM (inactive) in the experiment with HT-29; > 62.1 µM (inactive) in the experiment on Hs-578T; 3.78 µM (inactive) with K562; 4.89 µM (inactive) in the experiment with LOX IMVI; 1.43 µM (inactive) in the experiment with NCI-H522; 17.9 µM (inactive) in the experiment with NCI/ADR-RES. The GI50 with OVCAR-3 is 11.9 µM (inactive); in the experiment on OVCAR-8 it was 10.9 µM (inactive); in the experiment on SF-539, 20.6 µM (inactive); in the experiment on SW-620, 3.85 µM (inactive); with U-251, 27.5 µM (inactive); in the experiment on UACC-257, 12.1 µM (inactive). The values for the GI50 in the experiment with UACC-62 and with UO-31 were 12.5 µM (inactive) and 15 µM (inactive), respectively.
Turning to `O=C(CCOS(=O)(=O)CF)N1CCN(C(=O)CCOS(=O)(=O)CF)CC1`, the GI50 with A549 is 59 µM (inactive); with CCRF-CEM it was 3.27 µM (inactive); with COLO 205, > 80.7 µM (inactive); in the experiment on DU-145, 35.9 µM (inactive); with EKVX, > 100 µM (inactive); with HCC 2998, > 100 µM (inactive). Besides, the GI50 is > 100 µM (inactive) in the experiment with HT-29; 22.2 µM (inactive) in the experiment on Hs-578T; 56.5 µM (inactive) in the experiment on K562; 16.9 µM (inactive) with LOX IMVI; 31.6 µM (inactive) in the experiment with NCI-H522; > 100 µM (inactive) in the experiment on NCI/ADR-RES. The GI50 in the experiment on OVCAR-3 was > 100 µM (inactive); with OVCAR-8, 60.1 µM (inactive); in the experiment on SF-539, 28.8 µM (inactive); with SW-620, > 100 µM (inactive); with U-251 it was 29.8 µM (inactive); in the experiment on UACC-257, > 100 µM (inactive). For the same molecule, the GI50 in the experiment on UACC-62 is 16.4 µM (inactive); in the experiment on UO-31 it was 66.7 µM (inactive).
